{"source": "patent US11214547B2", "about": "“Crystalline Eltrombopag monoethanolamine salt form D” (F.I.S.—FABBRICA ITALIANA SINTETICI S.P.A., priority 2018, dated 2022)", "key": {"[1]": {"conditions": "cited from earlier work"}, "[2]": {"test": "Hygroscopicity study by DVS (Dynamic Vapour Sorption)", "assay_type": "physicochemical", "conditions": "25° C.", "procedure": "Hygroscopicity study was determined by DVS (Dynamic Vapour Sorption) with a Q5000 TA instrument. This is a gravimetric technique that measures how much water is absorbed or desorbed by a sample at different relative humidity (RH). At each RH, the sample mass must be allowed to reach gravimetric equilibrium (or surpassed time limit) before progressing to the next humidity level. Sorption and desorption isotherms were performed at 25° C. over a range of 0-95% RH. The samples gently milled were not previously dried but they were exposed to 0% RH until a stable weight was reached before starting the DVS cycle. This equilibration step allows possible adsorbed humidity to be eliminated."}, "[3]": {"test": "Preliminary stability in water at RT (slurry, XRPD)", "assay_type": "physicochemical", "conditions": "XRPD at 1, 3, 6 and 24 h", "procedure": "A preliminary test stability study in water at RT of 4 ETP monoethanolamine salt Forms was performed in order to observed possible crystalline transitions. A sample of each crystalline form was slurried in water at RT and periodically analysed by XRPD (1, 3, 6 and 24 h) in order to detect possible crystalline transformation."}, "[4]": {"test": "Relative thermodynamic solubility in water at RT by HPLC", "assay_type": "physicochemical", "conditions": "for Intensity test average: average of solubility tests #1 and #2, water; for Intensity test average / Solubility test #1 (area counts) / Solubility test #2 (area counts): RT; for Solubility test #1 (area counts) / Solubility test #2 (area counts): water, 24 h stirring, HPLC ETP peak area of saturated solution", "procedure": "This suspension was stirred 24 h at RT in order to reach the equilibrium. Then, a sample was filtered and the resulting filtrate was analysed by HPLC by duplicate. The average peak area of ETP gave a relative value of the thermodynamic solubility of each form that can be compared with each other. The solids recovered after filtration were also analysed by XRPD to check that no crystalline phase transformation occurred during the slurring.\nThe following HPLC conditions were used to determine the relative solubility (due to their short analysis time and good response): • Column: C18 Zorbax Eclipse (XDB), 150×4.6 mm, 5 μm • Sample concentration: Saturated water solution of the ETP monoethanolamine salt • Mobile phase: ACN:MeOH:H2O (55:35:10) at pH=6.0+/−0.2 • Temperature: 27° C. • Flow rate: 1 mL/min • UV detector wavelength: 230 nm • Injection: 5 μL • Run time: 10 min\nHPLC ETP peak area in each of the different forms analysed was measured in order to establish their relative solubility. The HPLC analyses were performed by duplicate for each ETP monoethanolamine salt."}, "[5]": {"test": "Crystalline stability of Form D under accelerated ICH guideline conditions (XRPD)", "assay_type": "physicochemical", "source_text": "[…] […] This sample was periodically analysed by XRPD in order to observe possible crystalline transformation or amorphization. Moreover, a sample of ETP monoethanolamine salt Form D stored on a XRPD silicon holder was exposed in a climatic chamber. It is worth noting that these stability conditions are harsher than standard stability conditions due to the high surface of exposition of the solid stored on the XRPD silicon holder. The samples were periodically analysed by XRPD to observe possible crystalline transformation."}}}
{"smiles": "CC1=NN(c2ccc(C)c(C)c2)C(=O)/C1=N\\Nc1cccc(-c2cccc(C(=O)O)c2)c1O", "note": "[Eltrombopag olamine]", "values": [{"measurement": "thermally stable up to", "setting": "[1]; at higher temperature endothermic reaction associated with degradation", "value": "about 125 °C"}, {"measurement": "solubility in water", "setting": "[1]", "value": "sparingly soluble in water"}]}
{"smiles": "CC1=NN(c2ccc(C)c(C)c2)C(=O)/C1=N\\Nc1cccc(-c2cccc(C(=O)O)c2)c1O.NCCO", "note": "[Form H2]", "values": [{"measurement": "humidity adsorbed (water uptake)", "setting": "[2]; at 95% RH", "value": 0.6, "unit": "%"}, {"measurement": "crystalline stability slurried in water", "setting": "[3]", "value": "remained stable 24 h"}, {"measurement": "Intensity test average", "setting": "[4]", "value": 2867}, {"measurement": "Solubility test #1 (area counts)", "setting": "[4]", "value": 3068, "unit": "area counts"}, {"measurement": "Solubility test #2 (area counts)", "setting": "[4]", "value": 2665, "unit": "area counts"}]}
{"smiles": "CC1=NN(c2ccc(C)c(C)c2)C(=O)/C1=N\\Nc1cccc(-c2cccc(C(=O)O)c2)c1O", "note": "[Form D1]", "values": [{"measurement": "crystalline stability slurried in water", "setting": "[3]", "value": "remained stable 24 h"}, {"measurement": "Intensity test average", "setting": "[4]", "value": 2911}, {"measurement": "Solubility test #1 (area counts)", "setting": "[4]", "value": 2722, "unit": "area counts"}, {"measurement": "Solubility test #2 (area counts)", "setting": "[4]", "value": 3100, "unit": "area counts"}]}
{"smiles": "CC1=NN(c2ccc(C)c(C)c2)C(=O)/C1=N\\Nc1cccc(-c2cccc(C(=O)O)c2)c1O", "note": "[Form D]", "values": [{"measurement": "crystalline transformation by XRPD", "setting": "[5]; 14 weeks study period", "value": "polymorphic transition, hydrate formation or amorphization was not observed"}, {"measurement": "time the crystalline form remains stable", "setting": "[5]; climate chamber-75±5% RH, on XRPD sample holder", "value": "at least 14 weeks"}, {"measurement": "hygroscopicity", "setting": "[2]; 0-95% RH", "value": "not hygroscopic up to 85% RH"}, {"measurement": "crystalline stability slurried in water", "setting": "[3]", "value": "remained stable 24 h"}, {"measurement": "Intensity test average", "setting": "[4]", "value": 8066}, {"measurement": "relative solubility in water", "setting": "[4]; water at RT, ranking among the 4 forms", "value": "most soluble form in water at RT"}, {"measurement": "Solubility test #1 (area counts)", "setting": "[4]", "value": 7930, "unit": "area counts"}, {"measurement": "Solubility test #2 (area counts)", "setting": "[4]", "value": 8201, "unit": "area counts"}]}
